Measured values: patent publication US7956074B2, “Aryl-isoxazolo-4-yl-oxadiazole derivatives” (Hoffman-La Roche Inc., priority 2005, dated 2011)

Molecular target: T1, GABA A receptor α5β3γ2 (Homo sapiens, UniProt P18507+P31644)
T1 construct: expressed in transfected cells; host or cells: HEK293 cells, transiently transfected; membranes prepared
Test: [3H]flumazenil competition binding, human GABA A α5β3γ2
Details: competition for [3H]flumazenil (0.5 nM) binding, HEK293 cells expressing human (transiently transfected) α5β3γ2; means of two determinations; read-out: Ki[nM] hα5
Method: Membrane Preparation and Binding Assay
The affinity of compounds at GABA A receptor subtypes was measured by competition for [3H]flumazenil (85 Ci/mmol; Roche) binding to HEK293 cells expressing rat (stably transfected) or human (transiently transfected) receptors of composition
Cell pellets were suspended in Krebs-tris buffer (4.8 mM KCl, 1.2 mM CaCl2, 1.2 mM MgCl2, 120 mM NaCl, 15 mM Tris; pH 7.5; binding assay buffer), homogenized by polytron for ca. 20 sec on ice and centrifuged for 60 min at 4° C. (50000 g; Sorvall, rotor: SM24=20000 rpm). The cell pellets were resuspended in Krebs-tris buffer and homogenized by polytron for ca. 15 sec on ice. Protein was measured (Bradford method, Bio-Rad) and aliquots of 1 mL were prepared and stored at −80° C.
Assays were incubated to equilibrium for 1 hour at 4° C. and harvested onto GF/C uni-filters (Packard) by filtration using a Packard harvester and washing with ice-cold wash buffer (50 mM Tris; pH 7.5). After drying, filter-retained radioactivity was detected by liquid scintillation counting. Ki values were calculated using Excel-Fit (Microsoft) and are the means of two determinations.

Which Ki does the source give for `CC(C)c1onc(-c2ccccc2)c1-c1nnc(-c2ccc3c(c2)n(C)c(=O)n3C)o1` [Example 53, 5-[5-(5-Isopropyl-3-phenyl-isoxazol-4-yl)-[1,3,4]oxadiazol-2-yl]-1,3-dimethyl-1,3-dihydro-benzoimidazol-2-one] here?
The Ki was 2.3 nM.

`Cc1onc(-c2ccccc2)c1-c1nnc(-c2ccnc(Cl)c2)o1` [Example 54, 2-Chloro-4-[5-(5-methyl-3-phenyl-isoxazol-4-yl)-[1,3,4]oxadiazol-2-yl]-pyridine] was tested. Which Ki did it give?
The Ki was 88.4 nM.

For `Cc1onc(-c2ccccc2)c1-c1nnc(-c2ccnc(N3CCOCC3)c2)o1` [Example 55, 4-{4-[5-(5-Methyl-3-phenyl-isoxazol-4-yl)-[1,3,4]oxadiazol-2-yl]-pyridin-2-yl}-morpholine], which Ki is on record?
Its Ki is 324 nM.

With `COc1cc(N2CC[S+]([O-])CC2)ccc1-c1nnc(-c2c(-c3ccccc3)noc2C)o1` [Example 56, 4-{3-Methoxy-4-[5-(5-methyl-3-phenyl-isoxazol-4-yl)-[1,3,4]oxadiazol-2-yl]-phenyl}-thiomorpholine 1-oxide] as the compound, how does the Ki read?
Its Ki is 2.2 nM.

Which Ki does the source give for `Cc1onc(-c2ccccc2)c1-c1nnc(-c2ccc(C#N)cc2)o1` [Example 57, 4-[5-(5-Methyl-3-phenyl-isoxazol-4-yl)-[1,3,4]oxadiazol-2-yl]-benzonitrile] here?
The Ki was 84.2 nM.

How did the Ki turn out when `COc1cc(-n2ccnc2C)ccc1-c1nnc(-c2c(-c3ccccc3)noc2C)o1` [Example 58, 2-[2-Methoxy-4-(2-methyl-imidazol-1-yl)-phenyl]-5-(5-methyl-3-phenyl-isoxazol-4-yl)-[1,3,4]oxadiazole] was run?
The Ki was 13.9 nM.

How did the Ki turn out when `Cc1onc(-c2ccccc2)c1-c1nnc(-c2ccc(-n3ccnc3C)cc2)o1` [Example 59, 2-[4-(2-Methyl-imidazol-1-yl)-phenyl]-5-(5-methyl-3-phenyl-isoxazol-4-yl)-[1,3,4]oxadiazole] was run?
The Ki was 30.7 nM.

Which Ki does the source give for `CCc1onc(-c2ccccc2)c1-c1nnc(-c2ccc(F)cc2OC)o1` [Example 60, 2-(5-Ethyl-3-phenyl-isoxazol-4-yl)-5-(4-fluoro-2-methoxy-phenyl)-[1,3,4]oxadiazole] here?
Its Ki is 96 nM.

How did the Ki turn out when `COc1cc(F)ccc1-c1nnc(-c2c(-c3ccccc3)noc2C(C)C)o1` [Example 61, 2-(4-Fluoro-2-methoxy-phenyl)-5-(5-isopropyl-3-phenyl-isoxazol-4-yl)-[1,3,4]oxadiazole] was run?
Its Ki is 17.7 nM.

Which Ki does the source give for `COc1cc(NS(=O)(=O)c2cccs2)ccc1-c1nnc(-c2c(-c3ccccc3)noc2C)o1` [Example 62, Thiophene-2-sulfonic acid {3-methoxy-4-[5-(5-methyl-3-phenyl-isoxazol-4-yl)-[1,3,4]oxadiazol-2-yl]-phenyl}-amide] here?
The Ki was 42.8 nM.

How did the Ki turn out when `COc1cc(NS(=O)(=O)C(C)C)ccc1-c1nnc(-c2c(-c3ccccc3)noc2C)o1` [Example 63, Propane-2-sulfonic acid {3-methoxy-4-[5-(5-methyl-3-phenyl-isoxazol-4-yl)-[1,3,4]oxadiazol-2-yl]-phenyl}-amide] was run?
The Ki was 42.8 nM.

With `COc1cc(NC2CCOCC2)ccc1-c1nnc(-c2c(-c3ccccc3)noc2C)o1` [Example 64, {3-Methoxy-4-[5-(5-methyl-3-phenyl-isoxazol-4-yl)-[1,3,4]oxadiazol-2-yl]-phenyl}-(tetrahydro-pyran-4-yl)-amine] as the compound, how does the Ki read?
The Ki was 4.2 nM.

`COc1cc(NC2CCN(C)CC2)ccc1-c1nnc(-c2c(-c3ccccc3)noc2C)o1` [Example 65, {3-Methoxy-4-[5-(5-methyl-3-phenyl-isoxazol-4-yl)-[1,3,4]oxadiazol-2-yl]-phenyl}-(1-methyl-piperidin-4-yl)-amine] was tested. Which Ki did it give?
Its Ki is 15.3 nM.

With `COc1cc(N2CCNCC2)ccc1-c1nnc(-c2c(-c3ccccc3)noc2C)o1` [Example 66, 1-{3-Methoxy-4-[5-(5-methyl-3-phenyl-isoxazol-4-yl)-[1,3,4]oxadiazol-2-yl]-phenyl}-piperazine] as the compound, how does the Ki read?
Its Ki is 13.4 nM.

For `COc1cc(N2CCN(C)CC2)ccc1-c1nnc(-c2c(-c3ccccc3)noc2C)o1` [Example 67, 1-{3-Methoxy-4-[5-(5-methyl-3-phenyl-isoxazol-4-yl)-[1,3,4]oxadiazol-2-yl]-phenyl}-4-methyl-piperazine], which Ki is on record?
The Ki was 15.5 nM.

`COc1cc(N2CCOCC2)ccc1-c1nnc(-c2c(-c3ccccc3)noc2C)o1` [Example 68, 4-{3-Methoxy-4-[5-(5-methyl-3-phenyl-isoxazol-4-yl)-[1,3,4]oxadiazol-2-yl]-phenyl}-morpholine] was tested. Which Ki did it give?
The Ki was 4.2 nM.

Which Ki does the source give for `COc1ccccc1-c1nnc(-c2c(-c3ccccc3)noc2C2CC2)o1` [Example 69, 2-(5-Cyclopropyl-3-phenyl-isoxazol-4-yl)-5-(2-methoxy-phenyl)-[1,3,4]oxadiazole] here?
Its Ki is 8.1 nM.

For `Cc1onc(-c2ccccc2)c1-c1nnc(C2CCCCC2)o1` [Example 70, 2-Cyclohexyl-5-(5-methyl-3-phenyl-isoxazol-4-yl)-[1,3,4]oxadiazole], which Ki is on record?
The Ki was 262 nM.

Which Ki does the source give for `COC(=O)c1ccc(-c2nnc(-c3c(-c4ccccc4)noc3C)o2)cc1` [Example 71, 4-[5-(5-Methyl-3-phenyl-isoxazol-4-yl)-[1,3,4]oxadiazol-2-yl]-benzoic acid methyl ester] here?
The Ki was 289 nM.

With `COc1cc(N(C)C)ccc1-c1nnc(-c2c(-c3ccccc3)noc2C)o1` [Example 72, {3-Methoxy-4-[5-(5-methyl-3-phenyl-isoxazol-4-yl)-[1,3,4]oxadiazol-2-yl]-phenyl}-dimethyl-amine] as the compound, how does the Ki read?
The Ki was 12 nM.

For `COc1cc(F)ccc1-c1nnc(-c2c(-c3ccccc3)noc2C2CC2)o1` [Example 73, 2-(5-Cyclopropyl-3-phenyl-isoxazol-4-yl)-5-(4-fluoro-2-methoxy-phenyl)-[1,3,4]oxadiazole], which Ki is on record?
The Ki was 11.9 nM.

For `Cc1onc(-c2ccccc2)c1-c1nnc(-c2ccc3[nH]ccc3c2)o1` [Example 74, 5-[5-(5-Methyl-3-phenyl-isoxazol-4-yl)-[1,3,4]oxadiazol-2-yl]-1H-indole], which Ki is on record?
Its Ki is 134 nM.

With `Cc1onc(-c2ccccc2)c1-c1nnc(-c2ccc3c(ccn3C)c2)o1` [Example 75, 1-Methyl-5-[5-(5-methyl-3-phenyl-isoxazol-4-yl)-[1,3,4]oxadiazol-2-yl]-1H-indole] as the compound, how does the Ki read?
Its Ki is 129 nM.

Which Ki does the source give for `Cc1onc(-c2ccccc2)c1-c1nnc(-c2ccc(F)cc2F)o1` [Example 76, 2-(2,4-Difluoro-phenyl)-5-(5-methyl-3-phenyl-isoxazol-4-yl)-[1,3,4]oxadiazole] here?
The Ki was 189 nM.

`COc1cc(N2CCOCC2)ccc1-c1nnc(-c2c(-c3ccccc3)noc2C2CC2)o1` [Example 77, 4-{4-[5-(5-Cyclopropyl-3-phenyl-isoxazol-4-yl)-[1,3,4]oxadiazol-2-yl]-3-methoxy-phenyl}-morpholine] was tested. Which Ki did it give?
Its Ki is 2.1 nM.

How did the Ki turn out when `Cc1onc(-c2ccccc2)c1-c1nnc(-c2ccc(C(=O)NC3CC3)cc2)o1` [Example 78, N-Cyclopropyl-4-[5-(5-methyl-3-phenyl-isoxazol-4-yl)-[1,3,4]oxadiazol-2-yl]-benzamide] was run?
Its Ki is 42.1 nM.

Which Ki does the source give for `Cc1onc(-c2ccccc2)c1-c1nnc(-c2ccc(C(=O)N3CCOCC3)cc2)o1` [Example 80, {4-[5-(5-Methyl-3-phenyl-isoxazol-4-yl)-[1,3,4]oxadiazol-2-yl]-phenyl}-morpholin-4-yl-methanone] here?
Its Ki is 469 nM.

Which Ki does the source give for `Cc1onc(-c2ccccc2)c1-c1nnc(-c2ccc(C(=O)NC3CCOCC3)cc2)o1` [Example 81, 4-[5-(5-Methyl-3-phenyl-isoxazol-4-yl)-[1,3,4]oxadiazol-2-yl]-N-(tetrahydro-pyran-4-yl)-benzamide] here?
Its Ki is 86 nM.

With `COc1cc(NC2CCOCC2)ccc1-c1nnc(-c2c(-c3ccccc3)noc2C2CC2)o1` [Example 82, {4-[5-(5-Cyclopropyl-3-phenyl-isoxazol-4-yl)-[1,3,4]oxadiazol-2-yl]-3-methoxy-phenyl}-(tetrahydro-pyran-4-yl)-amine] as the compound, how does the Ki read?
The Ki was 3.7 nM.

For `Cc1onc(-c2ccccc2)c1-c1nnc(-c2cc(F)ccc2F)o1` [Example 83, 2-(2,5-Difluoro-phenyl)-5-(5-methyl-3-phenyl-isoxazol-4-yl)-[1,3,4]oxadiazole], which Ki is on record?
The Ki was 163 nM.

How did the Ki turn out when `Cc1onc(-c2ccccc2)c1-c1nnc(-c2cccc(F)c2F)o1` [Example 84, 2-(2,3-Difluoro-phenyl)-5-(5-methyl-3-phenyl-isoxazol-4-yl)-[1,3,4]oxadiazole] was run?
Its Ki is 225 nM.

How did the Ki turn out when `COc1cc(-n2nccn2)ccc1-c1nnc(-c2c(-c3ccccc3)noc2C)o1` [Example 85, 2-(2-Methoxy-4-[1,2,3]triazol-2-yl-phenyl)-5-(5-methyl-3-phenyl-isoxazol-4-yl)-[1,3,4]oxadiazole] was run?
The Ki was 20.6 nM.

For `COc1cc(-n2ccnn2)ccc1-c1nnc(-c2c(-c3ccccc3)noc2C)o1` [Example 86, 2-(2-Methoxy-4-[1,2,3]triazol-1-yl-phenyl)-5-(5-methyl-3-phenyl-isoxazol-4-yl)-[1,3,4]oxadiazole], which Ki is on record?
The Ki was 4.8 nM.

`CNCc1onc(-c2ccccc2)c1-c1nnc(-c2ccc(F)cc2OC)o1` [Example 88, {4-[5-(4-Fluoro-2-methoxy-phenyl)-[1,3,4]oxadiazol-2-yl]-3-phenyl-isoxazol-5-ylmethyl}-methyl-amine] was tested. Which Ki did it give?
The Ki was 339 nM.

Which Ki does the source give for `COc1cc(NC(C)=O)ccc1-c1nnc(-c2c(-c3ccccc3)noc2C)o1` [Example 89, N-{3-Methoxy-4-[5-(5-methyl-3-phenyl-isoxazol-4-yl)-[1,3,4]oxadiazol-2-yl]-phenyl}-acetamide] here?
Its Ki is 4.6 nM.

Which Ki does the source give for `CCC(=O)Nc1ccc(-c2nnc(-c3c(-c4ccccc4)noc3C)o2)c(OC)c1` [Example 90, N-{3-Methoxy-4-[5-(5-methyl-3-phenyl-isoxazol-4-yl)-[1,3,4]oxadiazol-2-yl]-phenyl}-propionamide] here?
Its Ki is 4.8 nM.
